The subject of experiment [1] is Pasteurella multocida. Briefly: Treatment of Pasteurellosis in chicks (Table III). Format: in vivo, chicks; avian P. multocida. Conditions: 1 and 4 h post challenge, 5 days observation, ten chicks per group. The procedure:
Representative compounds were evaluated in groups of ten one-day-old chicks at the specified dosage of subcutaneous injection given one and four hours post challenge of the chicks with Pasteurella multocida (0.1 ml of a 20-hour tryptose broth culture of an avian P. multocida given subcutaneously). The compounds (as free bases) were administered in an aqueous propylene glycol solution; non-medicated water and feed were provided to the animals ad libitum.

For a further experiment, the system named is P. multocida. In words: MIC by conventional broth-dilution assay against P. multocida strains (Table II). Format: cell-based, P. multocida (avian, bovine and porcine strains). Conditions: Pasteurella multocida. The protocol: (§1) For example, representative compounds were tested against avian, bovine and porcine Pasteurella species, using the conventional broth-dilution assay. The P. haemolytica strains are bovine strains; the P. multocida strains are avian, bovine and porcine strains.

In the next experiment the test system is P. haemolytica. In words: MIC by conventional broth-dilution assay against P. haemolytica strains (Table II). In kind it is cell-based, P. haemolytica (bovine strains). The following applies: Mannheimia haemolytica. The procedure:
as §1

Experiment [2] has as its system Pasteurella multocida. Briefly: Treatment of Pasteurellosis in mice (Table IV). In kind it is in vivo, mice; bovine isolate of P. multocida. Conditions: 50 mg/kg × 2 s.c., 1 and 4 h post challenge, 7 days. The protocol: Cirramycin A1 and rosaramicin were evaluated in mice by subcutaneous injection given one and four hours post challenge of the mice with Pasteurella multocida (0.1 ml of a 10^-5 dilution of a tryptose broth culture of a bovine isolate). Mortality was evaluated for the following seven days.

[3] abbreviates: 30 mg/kg × 2 s.c., first (or only) experiment.
[4] abbreviates: 30 mg/kg × 2 s.c., second experiment.

Each structure is given as a SMILES string. In brackets after ≈: the same amount, converted by molar mass.

A word on the MIC: it is the smallest concentration in the dilution series that meets the test's criterion for growth inhibition.

Take `CCC1OC(=O)CC(O)C(C)C(OC2OC(C)C(O)C(N(C)C)C2O)C(CC=O)CC(C)C(O)C=CC(C)=CC1COC1OC(C)C(O)C(OC)C1OC` (stereo not shown) [9-Dihydrodesmycosin, 9-dihydrodesmycosin]: the entries for the “Deaths in Treated Chicks/Deaths in Infected Nonmedicated Controls” value (“Deaths in Treated Chicks/Deaths” below) with Pasteurella multocida [1] (setting [3]) and in the experiment on Pasteurella multocida [1] (setting [4]) were 3/10 and 0/10, respectively. For the same compound, the minimum inhibitory concentration (MIC) with P. multocida (P. multocida strain 17E) came to 12.5 µg/mL (≈ 16.2 µM); against P. multocida (P. multocida strain 22A), 12.5 µg/mL (≈ 16.2 µM); in the experiment on P. multocida (P. multocida strain 40G), 12.5 µg/mL (≈ 16.2 µM); against P. multocida (P. multocida strain 60A), 12.5 µg/mL (≈ 16.2 µM); against P. multocida (P. multocida strain 68C) it was 12.5 µg/mL (≈ 16.2 µM); against P. haemolytica (P. haemolytica strain 23A), 25 µg/mL (≈ 32.3 µM). Also, the MIC with P. haemolytica (P. haemolytica strain 23C) and in the experiment on P. haemolytica (P. haemolytica strain 41D) was 25 µg/mL (≈ 32.3 µM) each time.

As for `CCC1OC(=O)CC(O)C(C)C(OC2OC(C)C(O)C(N(C)C)C2O)C(CCO)CC(C)C(=O)C=CC(C)=CC1COC1OC(C)C(O)C(OC)C1OC` (stereo not shown) [20-Dihydrodesmycosin, 20-dihydrodesmycosin], the “Deaths in Treated Chicks/Deaths” value in the experiment with Pasteurella multocida [1] (setting [3]) and in the experiment with Pasteurella multocida [1] (setting [4]) was 0/10 in each case. Also, the MIC with P. multocida (P. multocida strain 17E) was found to be 25 µg/mL (≈ 32.3 µM); in the experiment with P. multocida (P. multocida strain 22A) it was 25 µg/mL (≈ 32.3 µM); with P. multocida (P. multocida strain 40G), 50 µg/mL (≈ 64.6 µM); against P. multocida (P. multocida strain 60A), 25 µg/mL (≈ 32.3 µM); against P. multocida (P. multocida strain 68C), 6.25 µg/mL (≈ 8.08 µM); against P. haemolytica (P. haemolytica strain 23A) it was 50 µg/mL (≈ 64.6 µM). For the same compound, the MIC against P. haemolytica (P. haemolytica strain 23C) and against P. haemolytica (P. haemolytica strain 41D) was 50 µg/mL (≈ 64.6 µM) throughout.

As for `CCC1OC(=O)CC(O)C(C)C(OC2OC(C)C(O)C(N(C)C)C2O)C(CC=O)CC(C)C(=O)C=CC2(C)OC2C1C` (stereo not shown) [Cirramycin A1, cirramycin A1], the “No. Died/No. Treated” value in the experiment on Pasteurella multocida [2] (Test A, replicate 1) is reported as 1/5; in the experiment with Pasteurella multocida [2] (Test A, replicate 2), 2/5; with Pasteurella multocida [2] (Test B, replicate 1), 1/5; in the experiment with Pasteurella multocida [2] (Test B, replicate 2), 0/5. Also, the minimum inhibitory concentration (MIC) is 1.56 µg/mL (≈ 2.61 µM) against P. multocida (P. multocida strain 17E); 3.12 µg/mL (≈ 5.22 µM) against P. multocida (P. multocida strain 22A); 3.12 µg/mL (≈ 5.22 µM) against P. multocida (P. multocida strain 40G); no more than 0.78 µg/mL against P. multocida (P. multocida strain 60A); 1.56 µg/mL (≈ 2.61 µM) against P. multocida (P. multocida strain 68C); 3.12 µg/mL (≈ 5.22 µM) in the experiment with P. haemolytica (P. haemolytica strain 23A). Moreover, the MIC against P. haemolytica (P. haemolytica strain 23C) and against P. haemolytica (P. haemolytica strain 41D) was 3.12 µg/mL (≈ 5.22 µM) throughout.

For `CCC1OC(=O)CC(O)C(C)C(OC2OC(C)C(O)C(N(C)C)C2O)C(CC=O)CC(C)C(=O)C=CC(C)=CC1C` (stereo not shown) [DOMT, 23-deoxy-5-O-mycaminosyltylonolide], the “Deaths in Treated Chicks/Deaths” value is on record as 1/9 in the experiment with Pasteurella multocida [1] (setting [3]) and 1/10 in the experiment with Pasteurella multocida [1] (setting [4]). Besides, the minimum inhibitory concentration (MIC) in the experiment with P. multocida (P. multocida strain 17E) is 1.56 µg/mL (≈ 2.68 µM); against P. multocida (P. multocida strain 22A) it was 1.56 µg/mL (≈ 2.68 µM); in the experiment with P. multocida (P. multocida strain 40G) it was 3.12 µg/mL (≈ 5.36 µM); with P. multocida (P. multocida strain 60A), no more than 0.78 µg/mL; against P. multocida (P. multocida strain 68C) it was no more than 0.78 µg/mL; with P. haemolytica (P. haemolytica strain 23A) it was 3.12 µg/mL (≈ 5.36 µM). Moreover, the MIC against P. haemolytica (P. haemolytica strain 23C) was 3.12 µg/mL (≈ 5.36 µM); in the experiment on P. haemolytica (P. haemolytica strain 41D), 6.75 µg/mL (≈ 11.6 µM).

Take `CCC1OC(=O)CC(O)C(C)C(OC2OC(C)C(O)C(N(C)C)C2O)C(CC=O)CC(C)C(=O)C=CC(C)=CC1COC1OC(C)C(O)C(OC)C1OC` (stereo not shown) [Desmycosin, desmycosin]: the “Deaths in Treated Chicks/Deaths” value in the experiment on Pasteurella multocida [1] (setting [3]) and with Pasteurella multocida [1] (setting [4]) was 0/10 in each case. For the same compound, the MIC was 12.5 µg/mL (≈ 16.2 µM) against P. multocida (P. multocida strain 17E); 12.5 µg/mL (≈ 16.2 µM) with P. multocida (P. multocida strain 22A); 25 µg/mL (≈ 32.4 µM) against P. multocida (P. multocida strain 40G); 12.5 µg/mL (≈ 16.2 µM) against P. multocida (P. multocida strain 60A); 6.25 µg/mL (≈ 8.1 µM) in the experiment on P. multocida (P. multocida strain 68C); 25 µg/mL (≈ 32.4 µM) against P. haemolytica (P. haemolytica strain 23A). For the same compound, the minimal inhibitory concentration (MIC) in the experiment with P. haemolytica (P. haemolytica strain 23C) and in the experiment on P. haemolytica (P. haemolytica strain 41D) was 25 µg/mL (≈ 32.4 µM) each time.

Take `CCC1OC(=O)CC(O)C(C)C(OC2OC(C)C(O)C(N(C)C)C2O)C(CC=O)CC(C)C(=O)C=CC(C)=CC1COC1OC(C)C(O)C(O)C1OC` (stereo not shown) [Lactenocin, lactenocin]: the “Deaths in Treated Chicks/Deaths” value in the experiment with Pasteurella multocida [1] (setting [3]) and in the experiment with Pasteurella multocida [1] (setting [4]) was 0/10 each time. Moreover, the minimal inhibitory concentration (MIC) against P. multocida (P. multocida strain 17E) stood at 12.5 µg/mL (≈ 16.5 µM); with P. multocida (P. multocida strain 22A), 12.5 µg/mL (≈ 16.5 µM); in the experiment with P. multocida (P. multocida strain 40G) it was 25 µg/mL (≈ 33 µM); in the experiment with P. multocida (P. multocida strain 60A), 6.25 µg/mL (≈ 8.25 µM); in the experiment on P. multocida (P. multocida strain 68C) it was 6.25 µg/mL (≈ 8.25 µM); against P. haemolytica (P. haemolytica strain 23A), 25 µg/mL (≈ 33 µM). Also, the MIC in the experiment with P. haemolytica (P. haemolytica strain 23C) came to 25 µg/mL (≈ 33 µM); with P. haemolytica (P. haemolytica strain 41D), 50 µg/mL (≈ 66 µM).

For `CC[C@H]1OC(=O)C[C@@H](O)[C@H](C)[C@@H](O[C@@H]2O[C@H](C)C[C@H](N(C)C)[C@H]2O)[C@@H](CC=O)C[C@@H](C)C(=O)/C=C/[C@]2(C)O[C@H]2[C@@H]1C` [Rosaramicin, rosaramicin], the figures for the “Deaths in Treated Chicks/Deaths” value with Pasteurella multocida [1] (setting [3]) and in the experiment on Pasteurella multocida [1] (60 mg/kg × 2 s.c.) were 5/8 and 2/8, respectively. Further, the “No. Died/No. Treated” value with Pasteurella multocida [2] (Test A, replicate 1) is 0/5; in the experiment on Pasteurella multocida [2] (Test A, replicate 2), 0/5; with Pasteurella multocida [2] (Test B, replicate 1) it was 0/5; in the experiment with Pasteurella multocida [2] (Test B, replicate 2) it was 3/5. Besides, the MIC in the experiment with P. multocida (P. multocida strain 17E) was no more than 0.78 µg/mL; against P. multocida (P. multocida strain 22A) it was 1.56 µg/mL (≈ 2.68 µM); in the experiment with P. multocida (P. multocida strain 40G), 1.56 µg/mL (≈ 2.68 µM); in the experiment on P. multocida (P. multocida strain 60A) it was no more than 0.78 µg/mL; in the experiment with P. multocida (P. multocida strain 68C), no more than 0.78 µg/mL; against P. haemolytica (P. haemolytica strain 23A) it was 1.56 µg/mL (≈ 2.68 µM). The values for the minimal inhibitory concentration (MIC) against P. haemolytica (P. haemolytica strain 23C) and against P. haemolytica (P. haemolytica strain 41D) were 12.5 µg/mL (≈ 21.5 µM) and 1.56 µg/mL (≈ 2.68 µM), respectively.
